The values below come from US11707474B2, “Methods for treating acute myeloid leukemia and related conditions” (GlycoMimetics, Inc., priority 2018, dated 2023).

Data set [1] is described as follows: Radiation induced mucositis assay. To be noted: 8.0 Gy whole body irradiation; 20 mg/kg IP BID 6 days. The data set is classed as in vivo, Mice (C57bl/6). The procedure:
Mice (C57bl/6) were subjected to whole body irradiation (8.0 Gy) and immediately afterwards treated with a compound of Formula (I) (20 mg/kg in saline, IP, BID (i.e. 40 mg/kg per day)) or saline alone (0.15 M NaCl) for 6 days. The small intestine was removed at day 6 and digested to release cells. The number of CD11b^+F4/80^+ macrophages from the small intestine was determined by flow cytometry (FIG. 2).

The test system of data set [2] is relapsed/refractory (R/R) acute myeloid leukemia (AML). Description: Phase 2 clinical outcomes, relapsed/refractory AML, sodium salt infusion with MEC. The data set is classed as in vivo, human. Here is the method:
In this Phase 2 study related to the Phase 1 study described above (see Example 13), 47 additional subjects were administered the RP2D dose of 10 mg/kg/dose. The data of the 19 subjects in the 10 mg/kg/dose arm of the Phase 1 study was added to the data of these 47 additional subjects, resulting in data for 66 human subjects being considered in the Phase 2 study.
In detail, consistent with the Phase 1 study protocols, a total of 66 human subjects with relapsed/refractory (R/R) acute myeloid leukemia (AML) were selected for this study (i.e., the 19 subjects from the 10 mg/kg/dose arm of the Phase 1 study plus 47 additional subjects).
Whether as part of the Phase 1 study (for 19 of the subjects) or as an additional subject for the Phase 2 study, each subject received a total of 15 infusions of the RP2D dose of 10 mg/kg/dose of the compound of Formula (I), administered as the sodium salt, over 8 days with a nominal infusion duration of 20 minutes (either as part of the Phase 1 study for 19 subjects or as a new Phase 2). The formulation for the infusion solution was as follows: […]
The first dose of a compound of Formula (I) was administered 24 hours±1 hour prior to the first dose of MEC (mitoxantrone, etoposide, and cytarabine) induction chemotherapy as a sentinel dose to evaluate the effect of the compound of Formula (I) alone (i.e., a single dose of 10 mg/kg the day before the first chemotherapy day). The compound of Formula (I) was then administered every 12 hours±1 hour on chemotherapy days, starting 2 hours prior to chemotherapy (i.e., 20 mg/kg per day on chemotherapy days). […] MEC chemotherapy was administered on Days 2-6.
The clinical outcome for each subject was assessed at the time of count recovery following completion of induction chemotherapy. Subjects were assigned to one of four response groups: complete remission (“CR”); complete remission with incomplete count recovery (“CRi”); morphologic leukemia-free state (“MLFS”); persistent disease (“PD”). Complete remission was defined as bone marrow blasts <5%; absence of circulating blasts and blasts with Auer rods; absence of extramedullary disease; ANC ≥1.0×10^9/L and platelets ≥100,000×10^9/L. Complete remission with incomplete recovery was defined as: all CR criteria except for residual neutropenia (<1.0×10^9/L) or thrombocytopenia (<100,000×10^9/L). Morphologic leukemia-free state was defined as: bone marrow blasts <5%; absence of blasts with Auer rods; absence of extramedullary disease; no hematologic recovery required. Persistent disease was defined as: bone marrow blasts >5%.
Outcomes shown below provide data for Phase 1 (Example 13, all cohorts combined), Phase 2, and Total (Phase 1 and Phase 2) subject populations.

Turning to `CC[C@@H]1CC(C(=O)NCCNC(=O)CCOCCOCCOCCOCCOCCOCCOCCOCCOCCOCCOCCOC)C[C@@H](O[C@@H]2O[C@@H](CO)[C@H](O)C(O[C@@H](CC3CCCCC3)C(=O)O)C2NC(C)=O)C1OC1O[C@@H](C)C(O)[C@H](O)[C@@H]1O` (stereo partly drawn) [compound of Formula (I)], the “CD11b+F4/80+ macrophages in small intestine” value in data set [1] is on record as “decreased migration of inflammatory macrophages to the intestines”. The “response rate (CR/CRi)” value in data set [2] (after a single course of induction treatment with MEC) is on record as “over 40%”. Besides, the “severe oral mucositis rate” value in data set [2] (with MEC) is reported as 2-3%. In data set [2] (with MEC, RP2D 10 mg/kg/dose), the “one-year survival rate, MRD negative subjects” value stood at 73% and the “one-year survival rate, all subjects” value amounted to 35%. In data set [2] (with MEC, RP2D 10 mg/kg/dose, 95% CI 5.7-11.4), the median overall survival is recorded as 8.8 months.
